# Test results as given in patent US20230173071A1, “TREATMENT OF MYOPIA AND OTHER OCULAR CONDITIONS USING SINGLET OXYGEN GENERATED FROM DYES ACTIVATED BY NEAR-INFRARED LIGHT” (California Institute of Technology, priority 2018, published 2023).
# Tests used:
# bovine gelatin = test: Young's Modulus measurement (Instron) of irradiated bovine gelatin strips; settings: bovine gelatin 25% wt, ICG 1 mg/mL, TEOA 90 mM; 810 nm 200 mW LED; 3 and 5 minute irradiations compiled
# Experimental: All Young's Modulus values were determined using an Instron equipped with screw side action tensile grips and a load cell rated for max 100 N. Rates of pulling were between 3 mm/minute and 5 mm/minute. The software calculated the Young's Modulus from the force vs. distance/time.
# Bovine gelatin sheets were made by heating the gelatin in Dulbecco's buffer to 75° C. for 30 minutes in order to dissolve the dried gelatin and make a viscous solution. Neat TEOA and a concentrated stock solution of ICG in deionized water were added to make the final concentrations: bovine gelatin=25% wt, TEOA=90 mM, and ICG=1 mg/mL. This solution was pipetted hot into a plexiglass mold with a Teflon spacer to form a sheet of the following dimensions: 14 cm×6 cm×1 mm. It was stored overnight in a 4° C. refrigerator to solidify. Twelve 1 cm×6 cm strips were cut from the solidified gel for triplicate analysis of 4 conditions: no irradiation, 3 minute, 5 minute, and 10 minute irradiations. An 810 nm 200 mW LED (Thor Labs) was used for treatment of the gel strip. The LED with a collimator produced a 1 cm×1 cm irradiation area, which was used to treat 1 cm portions of the gelatin strip at a time. For example, an initial irradiation was applied for 3 minutes on 1 cm of the gel, then the gel was shifted 1 cm to a new, untreated portion. […]
# [1] = system: sclera of enucleated young rabbit eyes; test: Eye expansion test - whole eye treatment, scleral area analysis; settings: for reduction in expansion, treated vs untreated: ICG with sodium iodide (NaI) additive in D2O; for reduction in expansion, fully treated eyes vs NIR light only treated eyes: ICG/NaI/D2O with NIR light
# Experimental: Enucleated young rabbit eyes were provided from collaborators at University of California, San Francisco (UCSF). These were shipped overnight and used within 1-4 days. Upon arrival, they were stored in Dulbecco's buffer in a 4° C. refrigerator until use. They were trimmed of fat and muscle to provide a smooth surface for easy identification of changes to the size. All irradiations used an 810 nm LED (Thor) set to a power of ˜200 mW.
# Untreated eyes received no further modification and were stored in Dulbecco's buffer in the refrigerator until use. Eyes to be treated had their epithelial layer on the cornea removed. An ethanol-soaked Kim wipe was applied to the cornea for two minutes and then a scalpel blade was used to scrape the layer off. Removal was confirmed using a fluorescein strip and long UV light. […] The eye was placed cornea up on a damp (D2O) gauze pad and then placed on a 10 mL beaker. The LED was placed above the eye to irradiate down for 10 minutes with 5-15 drops of either the soaking solution or D2O being applied every 2 minutes to keep the sample hydrated. Once completed, the irradiation process was repeated for the reverse side of the eye (by the retina), then the eye on its side (half cornea & sclera), and finally on the reverse side of the sideways eye. This was a total of four 10 minute irradiations aimed to treat the whole eye.
# The eye expansion setup followed the protocol outlined below. The eyes were placed on a stand and 30 gauge needle was inserted from underneath. The chamber was filled with Dulbecco's buffer and two different antibiotics mixtures—an ophthalmic solution of Trimethoprim Sulfate and Polymyxin B Sulfate and an ophthalmic ointment of Neomycin and Polmyxin B Sulfates and Bacitracin Zinc. A low pressure (˜22 mm Hg) was applied for one hour to equilibrate the eyes prior to applying a higher pressure (˜85 mm Hg) for the experiment. This is done by raising an IV bag to a predetermined height above the eye chamber. The higher pressure was applied from 12-36 hours (or until rupture) depending on the experiment. Two photos were taken every 15 minutes during both the low and high-pressure applications. […]
# Image J was used to calculate the scleral area for comparison. […] Measured scleral areas where then converted to percent change from the initial time point (when the higher pressure was first applied). These values were averaged and standard errors calculated for comparison.
# To evaluate the ability of ICG to crosslink the sclera, a similar set of eye expansion tests was performed. […] To quantify this observation, the area of the sclera was calculated using Image J for the initial and 12-hour time points (FIGS. 7(A-B)). Expansion from the initial time point was calculated and compared as a percent.
compound,measurement,setting,value
"CC1(C)C(/C=C/C=C/C=C/C=C2\N(CCCCS(=O)(=O)O)c3ccc4ccccc4c3C2(C)C)=[N+](CCCCS(=O)(=O)[O-])c2ccc3ccccc3c21 [ICG, indocyanine green]","increase of the Young's Modulus, irradiated vs non-irradiated sample",bovine gelatin,26%
same,"reduction in expansion, treated vs untreated",[1]; 12 hour time point,~62%
same,"reduction in expansion, treated vs untreated",[1]; 24 hour time point,70%
same,"reduction in expansion, fully treated eyes vs NIR light only treated eyes",[1]; 12 hour time point,~69%
same,"reduction in expansion, fully treated eyes vs NIR light only treated eyes",[1]; 24 hour time point,~72%
